The values below are quoted from earlier work in PubChem BioAssay AID1259409 (Chemical Carcinogenesis Research Information System (CCRIS), 2018).

This series has as its system rodent chemically induced tumor inhibition, incidence and multiplicity. In words: CCRIS tumor inhibitor studies.

SMILES strings stand for the structures. Several values for one entry are separate records, joined by “and”; a condition that tells them apart may be missing. Identical values can stand only once.

In the case of `CC1=C(/C=C/C(C)=C\C=C\C(C)=C\C(=O)O)C(C)(C)CCC1`, the outcome (Carcinogen: 4-(Methylnitrosamino)-1-(3-pyridyl)-1-butanone [64091-91-4] (NNK), Dose [Inhibitor]: 0, 7.5, 15, 30 mg/kg in diet for 17 wks, study duration 17 wks, Dose [Inhibitor]: 0, 7.5, 15, 30 mg/kg in diet for 17 wks, study duration 17 wks, Route [Inhibitor]: Oral, Species: Mouse, Strain/Sex: A/J/Male, Target Tissue: Type of Lesion: Lung, Dose [Carcinogen]: 100 mg NNK/kg bw once at 8 wks of age, study duration 17 wks) is listed as 14/14 (100%); 13/14 (93%); 14/14 (100%); 11/13 (85%). Further, the “tumour outcome (control, treated, inhibition, significance)” value is, setting by setting: (Carcinogen: N-METHYL-N-NITROSOUREA, 684-93-5, Dose [Inhibitor]: 0, 3.3 UG/KG OF DIET FOR 147 D (STUDY DURATION: 150 D), Route [Inhibitor]: ORAL, Species: RAT, Strain/Sex: SPRAGUE-DAWLEY/FEMALE, Target Tissue: Type of Lesion: MAMMARY GLAND: ADENOCARCINOMA, Dose [Carcinogen]: 50 MG/KG BW ONCE 3 D BEFORE INITIAL INHIBITOR DOSE, Promoter: NONE USED) 25/25 (100%), 25/25 (100%), 0%, not significant; (Carcinogen: N-METHYL-N-NITROSOUREA, 684-93-5, Dose [Inhibitor]: 0, 10 UG/KG OF DIET FOR 147 D (STUDY DURATION: 150 D), Route [Inhibitor]: ORAL, Species: RAT, Strain/Sex: SPRAGUE-DAWLEY/FEMALE, Target Tissue: Type of Lesion: MAMMARY GLAND: ADENOCARCINOMA, Dose [Carcinogen]: 50 MG/KG BW ONCE 3 D BEFORE INITIAL INHIBITOR DOSE, Promoter: NONE USED) 25/25 (100%), 25/25 (100%), 0%, not significant; (Carcinogen: N-METHYL-N-NITROSOUREA, 684-93-5, Dose [Inhibitor]: 0, 50 MG/KG OF DIET BEGINNING 1 WK PRIOR TO CARCINOGEN DOSE (STUDY DURATION: 14 MO), Route [Inhibitor]: ORAL, Species: RAT, Strain/Sex: WISTAR-UNILEVER/MALE, Target Tissue: Type of Lesion: PROSTATE: ADENOCARCINOMA, Dose [Carcinogen]: 30 MG/KG BW ONCE ADMINISTERED TO RATS PRETREATED WITH 50 MG OF CYPROTERONE ACETATE BY GAVAGE FOR 21 CONSECUTIVE DAYS THE, Promoter: TESTOSTERONE, 58-22-0) 22/34 (65%), 8/40 (20%), 70%, p<0.001; (Carcinogen: N-METHYL-N-NITROSOUREA, 684-93-5, Dose [Inhibitor]: 0, 60 MG/KG OF DIET FOR 147 D (STUDY DURATION: 150 D), Route [Inhibitor]: ORAL, Species: RAT, Strain/Sex: SPRAGUE-DAWLEY/FEMALE, Target Tissue: Type of Lesion: MAMMARY GLAND: ADENOCARCINOMA, Dose [Carcinogen]: 50 MG/KG BW ONCE 3 D BEFORE INITIAL INHIBITOR DOSE, Promoter: NONE USED) 25/25 (100%), 24/25 (96%), 4%, not significant; (Carcinogen: N-METHYL-N-NITROSOUREA, 684-93-5, Dose [Inhibitor]: 0, 60 MG/KG OF DIET FOR DURATION OF STUDY BEGINNING 1 WK POST CARCINOGEN DOSE (STUDY DURATION: 5 MO), Route [Inhibitor]: ORAL, Species: RAT, Strain/Sex: SPRAGUE-DAWLEY/FEMALE, Target Tissue: Type of Lesion: MAMMARY GLAND: TUMOR, Dose [Carcinogen]: 50 MG/KG BW ONCE, Promoter: NONE USED) 23/24 (96%), 9/12 (75%), 22%, p=0.1 and 29/30 (97%), 24/30 (80%), 18%, p=0.1; (Carcinogen: N-METHYL-N-NITROSOUREA, 684-93-5, Dose [Inhibitor]: 0, 100 MG/KG OF DIET BEGINNING 1 WK PRIOR TO CARCINOGEN DOSE (STUDY DURATION: 14 MO), Route [Inhibitor]: ORAL, Species: RAT, Strain/Sex: WISTAR-UNILEVER/MALE, Target Tissue: Type of Lesion: PROSTATE: ADENOCARCINOMA, Dose [Carcinogen]: 30 MG/KG BW ONCE ADMINISTERED TO RATS PRETREATED WITH 50 MG OF CYPROTERONE ACETATE BY GAVAGE FOR 21 CONSECUTIVE DAYS THE, Promoter: TESTOSTERONE, 58-22-0) 22/34 (65%), 7/38 (18%), 72%, p<0.001. The “tumour outcome (control, treated, inhibition, significance)” value (Carcinogen: N-METHYL-NITROSOUREA [684-93-5], Dose [Inhibitor]: 60 MG/KG DIET BEGINNING 3 D POST-CARCINOGEN DOSE (STUDY DURATION: 150 D), Route [Inhibitor]: ORAL, Species: RAT, Strain/Sex: SPRAGUE-DAWLEY/FEMALE, Target Tissue: Type of Lesion: MAMMARY GLAND: ADENOCARCINOMA, Dose [Carcinogen]: 50 MG/KG BW ONCE AT 50 D OF AGE) is listed as 25/25 (100%); 24/25 (96%), 4%, not significant; the “tumour outcome (control, treated, inhibition, significance)” value (Carcinogen: N-NITROSO-N-METHYLUREA, 684-93-5, Dose [Inhibitor]: 0, 60 MG/KG OF DIET FOR 3 MO BEGINNING 1 WK POST CARCINOGEN DOSE (STUDY DURATION: 100 D), Route [Inhibitor]: ORAL, Species: RAT, Strain/Sex: SPRAGUE-DAWLEY/FEMALE, Target Tissue: Type of Lesion: MAMMARY GLAND: TUMOR, Dose [Carcinogen]: 50 MG/KG BW ONCE, Promoter: NONE USED) is 100%, 58%, 42%, p<0.002; the “tumour outcome (control, treated, inhibition, significance)” value (Carcinogen: N-NITROSO-N-METHYLUREA, 684-93-5, Dose [Inhibitor]: 0, 60 MG/KG OF DIET FOR 4.5 MO BEGINNING 1 WK POST CARCINOGEN DOSE (STUDY DURATION: 100 D), Route [Inhibitor]: ORAL, Species: RAT, Strain/Sex: SPRAGUE-DAWLEY/FEMALE, Target Tissue: Type of Lesion: MAMMARY GLAND: TUMOR, Dose [Carcinogen]: 50 MG/KG BW ONCE, Promoter: NONE USED) is 96%, 75%, 22%, not significant; the “tumour outcome (control, treated, inhibition, significance)” value (Carcinogen: N-NITROSO-N-METHYLUREA, 684-93-5, Dose [Inhibitor]: 0, 120 MG/KG OF DIET FOR 3 MO BEGINNING 1 WK POST CARCINOGEN DOSE (STUDY DURATION: 100 D), Route [Inhibitor]: ORAL, Species: RAT, Strain/Sex: SPRAGUE-DAWLEY/FEMALE, Target Tissue: Type of Lesion: MAMMARY GLAND: TUMOR, Dose [Carcinogen]: 50 MG/KG BW ONCE, Promoter: NONE USED) was 100%, 25%, 75%, p<0.001; the “tumour outcome (control, treated, inhibition, significance)” value (Carcinogen: N-NITROSO-N-METHYLUREA, 684-93-5, Dose [Inhibitor]: 0, 120 MG/KG OF DIET FOR 4.5 MO BEGINNING 1 WK POST CARCINOGEN DOSE (STUDY DURATION: 100 D), Route [Inhibitor]: ORAL, Species: RAT, Strain/Sex: SPRAGUE-DAWLEY/FEMALE, Target Tissue: Type of Lesion: MAMMARY GLAND: TUMOR, Dose [Carcinogen]: 50 MG/KG BW ONCE, Promoter: NONE USED) was 96%, 42%, 56%, p<0.001.

In the case of `c1cc2ccc3ccc4ccc5cccc6c(c1)c2c3c4c56`, the “tumour outcome (control, treated, inhibition, significance)” value is, setting by setting: (Carcinogen: BENZO[A]PYRENE, 50-32-8, Dose [Inhibitor]: 7 UG IN 0.1 ML ACETONE 3/WK ADMINISTERED SIMULTANEOUSLY WITH CARCINOGEN FOR DURATION OF STUDY (STUDY DURATION: 368 D), Route [Inhibitor]: DERMAL, Species: MOUSE, Strain/Sex: ICR/FEMALE, Target Tissue: Type of Lesion: SKIN: PAPILLOMA, Dose [Carcinogen]: 5 UG IN 0.1 ML ACETONE 3/WK FOR DURATION OF STUDY, Promoter: NONE USED) 14/50 (28%), 19/50 (38%), -36%, not calculated; (Carcinogen: BENZO[A]PYRENE, 50-32-8, Dose [Inhibitor]: 7 UG IN 0.1 ML ACETONE 3/WK ADMINISTERED SIMULTANEOUSLY WITH CARCINOGEN FOR DURATION OF STUDY (STUDY DURATION: 368 D), Route [Inhibitor]: DERMAL, Species: MOUSE, Strain/Sex: ICR/FEMALE, Target Tissue: Type of Lesion: SKIN: SQUAMOUS CARCINOMA, Dose [Carcinogen]: 5 UG IN 0.1 ML ACETONE 3/WK FOR DURATION OF STUDY, Promoter: NONE USED) 10/50 (20%), 10/50 (20%), 0%, not calculated; (Carcinogen: BENZO[A]PYRENE, 50-32-8, Dose [Inhibitor]: 21 UG IN 0.1 ML ACETONE 3/WK ADMINISTERED SIMULTANEOUSLY WITH CARCINOGEN FOR DURATION OF STUDY (STUDY DURATION: 368 D), Route [Inhibitor]: DERMAL, Species: MOUSE, Strain/Sex: ICR/FEMALE, Target Tissue: Type of Lesion: SKIN: PAPILLOMA, Dose [Carcinogen]: 5 UG IN 0.1 ML ACETONE 3/WK FOR DURATION OF STUDY, Promoter: NONE USED) 14/50 (28%), 20/50 (40%), -43%, not calculated; (Carcinogen: BENZO[A]PYRENE, 50-32-8, Dose [Inhibitor]: 21 UG IN 0.1 ML ACETONE 3/WK ADMINISTERED SIMULTANEOUSLY WITH CARCINOGEN FOR DURATION OF STUDY (STUDY DURATION: 368 D), Route [Inhibitor]: DERMAL, Species: MOUSE, Strain/Sex: ICR/FEMALE, Target Tissue: Type of Lesion: SKIN: SQUAMOUS CARCINOMA, Dose [Carcinogen]: 5 UG IN 0.1 ML ACETONE 3/WK FOR DURATION OF STUDY, Promoter: NONE USED) 10/50 (20%), 18/50 (36%), -80%, not calculated.
